According to PubChem BioAssay AID2060898 (Molecular Pharmacology Branch, DTP, NCI, 2025):

Test system: 616215-338-R-J1-PDC complex spheroid viability
Experiment: Anticancer human tumor 616215-338-R-J1-PDC patient-derived colon adenocarcinoma cell line growth inhibition [RAS]
Details: for IC50: curve of first compound; for viability, T/C: stronger effect = lower value; active = viability on the fitted dose curve at most 10% of control; inactive = the rest
How it was run: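 Tumour cells grown as complex spheroids with HUVEC endothelial cells and mesenchymal stem cells, treated with RAS pathway inhibitor combinations. Each agent spans half-log steps from near clinical Cmax, or 10 microM where Cmax is unknown.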
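Note: spheroids exposed to agents for seven days before viability readout.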
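Throughout, for viability, T/C: 100% = DMSO vehicle control viability.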

CC(=O)OC12COC1CC(O)C1(C)C(=O)C(O)C3=C(C)C(OC(=O)C(O)C(NC(=O)OC(C)(C)C)c4ccccc4)CC(O)(C(OC(=O)c4ccccc4)C21)C3(C)C (centres undefined) + C=CC(=O)N1CCN(c2nc(OCC3CCCN3C)nc3c(F)c(-c4nc(N)cc(C)c4C(F)(F)F)c(Cl)cc23)C(C)C1
< 31.6 nM: IC50 (second compound 0.00316 µM) | IC50 (second compound 0.01 µM) | IC50 (second compound 0.0316 µM) | IC50 (second compound 0.1 µM) | IC50 (second compound 0.316 µM) | IC50 (second compound 1 µM)
inactive: viability, T/C (second compound 0.00316 µM, first compound 0.0316 µM) 28% | viability, T/C (second compound 0.00316 µM, first compound 0.1 µM) 22.4% | viability, T/C (second compound 0.00316 µM, first compound 0.316 µM) 18.4% | viability, T/C (second compound 0.00316 µM, first compound 1 µM) 18.6% | viability, T/C (second compound 0.00316 µM, first compound 3.16 µM) 18.3% | viability, T/C (second compound 0.00316 µM, first compound 10 µM) 24.5% | viability, T/C (second compound 0.01 µM, first compound 0.0316 µM) 25.3% | viability, T/C (second compound 0.01 µM, first compound 0.1 µM) 21.4% | viability, T/C (second compound 0.01 µM, first compound 0.316 µM) 17.5% | viability, T/C (second compound 0.01 µM, first compound 1 µM) 20.5% | viability, T/C (second compound 0.01 µM, first compound 3.16 µM) 18.7% | viability, T/C (second compound 0.01 µM, first compound 10 µM) 21.2% | viability, T/C (second compound 0.0316 µM, first compound 0.0316 µM) 21.3% | viability, T/C (second compound 0.0316 µM, first compound 0.1 µM) 23.9% | viability, T/C (second compound 0.0316 µM, first compound 0.316 µM) 16.5% | viability, T/C (second compound 0.0316 µM, first compound 1 µM) 18.5% | viability, T/C (second compound 0.0316 µM, first compound 3.16 µM) 20% | viability, T/C (second compound 0.0316 µM, first compound 10 µM) 21.9% | viability, T/C (second compound 0.1 µM, first compound 0.0316 µM) 24.3% | viability, T/C (second compound 0.1 µM, first compound 0.1 µM) 20.6% | viability, T/C (second compound 0.1 µM, first compound 0.316 µM) 20.6% | viability, T/C (second compound 0.1 µM, first compound 1 µM) 16.4% | viability, T/C (second compound 0.1 µM, first compound 3.16 µM) 21.1% | viability, T/C (second compound 0.1 µM, first compound 10 µM) 21% | viability, T/C (second compound 0.316 µM, first compound 0.0316 µM) 22.3% | viability, T/C (second compound 0.316 µM, first compound 0.1 µM) 22.3% | viability, T/C (second compound 0.316 µM, first compound 0.316 µM) 17.2% | viability, T/C (second compound 0.316 µM, first compound 1 µM) 18.5% | viability, T/C (second compound 0.316 µM, first compound 3.16 µM) 20.8% | viability, T/C (second compound 0.316 µM, first compound 10 µM) 23.9% | viability, T/C (second compound 1 µM, first compound 0.0316 µM) 22.4% | viability, T/C (second compound 1 µM, first compound 0.1 µM) 20.4% | viability, T/C (second compound 1 µM, first compound 0.316 µM) 18.7% | viability, T/C (second compound 1 µM, first compound 1 µM) 17.3% | viability, T/C (second compound 1 µM, first compound 3.16 µM) 23% | viability, T/C (second compound 1 µM, first compound 10 µM) 24.8%

CC1(C)CCC(Nc2ncc(C(F)(F)F)c(-c3c[nH]c4c(P(C)(C)=O)c(C#N)ccc34)n2)CN1 (centres undefined) + C=CC(=O)N1CCN(c2nc(OCC3CCCN3C)nc3c(F)c(-c4nc(N)cc(C)c4C(F)(F)F)c(Cl)cc23)C(C)C1
16.1 nM: IC50 (second compound 0.1 µM) | IC50 (second compound 0.316 µM)
8.99 nM: IC50 (second compound 1 µM)
12.8 nM: IC50 (second compound 0.00316 µM)
11.8 nM: IC50 (second compound 0.01 µM)
15.1 nM: IC50 (second compound 0.0316 µM)
inactive: viability, T/C (second compound 0.00316 µM, first compound 0.000949 µM) 103% | viability, T/C (second compound 0.00316 µM, first compound 0.003 µM) 102% | viability, T/C (second compound 0.00316 µM, first compound 0.00949 µM) 56.7% | viability, T/C (second compound 0.00316 µM, first compound 0.03 µM) 33.5% | viability, T/C (second compound 0.00316 µM, first compound 0.0949 µM) 25.2% | viability, T/C (second compound 0.00316 µM, first compound 0.3 µM) 28.3% | viability, T/C (second compound 0.01 µM, first compound 0.000949 µM) 109% | viability, T/C (second compound 0.01 µM, first compound 0.003 µM) 97.8% | viability, T/C (second compound 0.01 µM, first compound 0.00949 µM) 54% | viability, T/C (second compound 0.01 µM, first compound 0.03 µM) 32% | viability, T/C (second compound 0.01 µM, first compound 0.0949 µM) 30.2% | viability, T/C (second compound 0.01 µM, first compound 0.3 µM) 25.7% | viability, T/C (second compound 0.0316 µM, first compound 0.000949 µM) 103% | viability, T/C (second compound 0.0316 µM, first compound 0.003 µM) 108% | viability, T/C (second compound 0.0316 µM, first compound 0.00949 µM) 62.3% | viability, T/C (second compound 0.0316 µM, first compound 0.03 µM) 35.4% | viability, T/C (second compound 0.0316 µM, first compound 0.0949 µM) 29.2% | viability, T/C (second compound 0.0316 µM, first compound 0.3 µM) 31% | viability, T/C (second compound 0.1 µM, first compound 0.000949 µM) 106% | viability, T/C (second compound 0.1 µM, first compound 0.003 µM) 101% | viability, T/C (second compound 0.1 µM, first compound 0.00949 µM) 64% | viability, T/C (second compound 0.1 µM, first compound 0.03 µM) 33.8% | viability, T/C (second compound 0.1 µM, first compound 0.0949 µM) 27.8% | viability, T/C (second compound 0.1 µM, first compound 0.3 µM) 27.6% | viability, T/C (second compound 0.316 µM, first compound 0.000949 µM) 102% | viability, T/C (second compound 0.316 µM, first compound 0.003 µM) 97.3% | viability, T/C (second compound 0.316 µM, first compound 0.00949 µM) 61.9% | viability, T/C (second compound 0.316 µM, first compound 0.03 µM) 36.6% | viability, T/C (second compound 0.316 µM, first compound 0.0949 µM) 29.1% | viability, T/C (second compound 0.316 µM, first compound 0.3 µM) 28.7% | viability, T/C (second compound 1 µM, first compound 0.000949 µM) 99.7% | viability, T/C (second compound 1 µM, first compound 0.003 µM) 94.1% | viability, T/C (second compound 1 µM, first compound 0.00949 µM) 47.7% | viability, T/C (second compound 1 µM, first compound 0.03 µM) 33.8% | viability, T/C (second compound 1 µM, first compound 0.0949 µM) 34.7% | viability, T/C (second compound 1 µM, first compound 0.3 µM) 28.4%
